This note sets out measurements from patent US20200217852A1, “Quantitation of Free and Total N-Acetylcysteine Amide and Its Metabolite N-Acetylcysteine in Human Plasma Using Derivatization and Electrospray LC-MS/MS” (NACUITY PHARMACEUTICALS, INC., priority 2019, published 2020).

Like-named read-outs stand apart in the source and are kept apart here.

Data set [1] can be described thus: Stability of underivatized NAC and NACA thiol in plasma monitored directly by HILIC LC-MS/MS. The settings on record: human, room temperature, read-out: Half-lives for thiol disappearance. The data set is classed as in vitro ADME. As for the experimental part:
Half-lives for thiol disappearance were approximately 10 minutes at room temperature. Therefore, the inventors sought to stabilize NAC and NACA by derivatization. When plasma samples spiked with NAC and NACA were treated with TCEP and CMPI, the thiols were well recovered as the thioether derivatives.
(§1) All stability testing in plasma (benchtop, freeze/thaw, and long-term storage) was performed using QC samples prepared in both CMPI-fortified plasma as well as unfortified plasma. In this manner, the stabilities of both the oxidized thiols (in disulfide forms) and the thioether derivatives were tested, since it was assumed that unknown samples would likely contain some of both species. The CMPI-thioethers were stable for at least 5 freeze/thaw cycles and for at least 20 hours at room temperature, as compared to less than 1 hour for the underivatized free thiols. The oxidized thiols were stable for at least 5 freeze/thaw cycles and for at least 22 hours, as evidenced by their full recovery as thioethers when assayed using the total method. Stability was also tested in extracts, whether held for first injection or reinjected. Extracts were stable for over 90 hours when refrigerated. Precision and accuracy was acceptable in lipemic and hemolyzed plasma.

Data set [2] is classed as in vitro ADME. The settings on record: human. Here is the method: Calibration standards (CS) were prepared by mixing CMPI-fortified control matrix (95 parts) with the respective spiking solution (5 parts) to make 50.0, 40.0, 20.0, 5.00, 2.50, 0.500, 0.100, and 0.050 μg/mL NAC/NACA pools which were stable for at least 80 days when stored at −20° C. and for 284 days when stored at −80° C. It was critical that CS pools be spiked quickly after CMPI fortification of the plasma, with the lowest concentration pools being spiked first, within 5-10 minutes of mixing plasma with CMPI.
Validation. The method was validated according to regulatory guidances. Three independently prepared analytical runs were executed to test the linearity of the calibration curve and the precision and accuracy of measuring validation samples (over 4 concentrations). Additional runs to evaluate recovery, matrix factor/suppression effects, reinjection reproducibility, and carryover were also performed. The selectivity of the method was evaluated over 10 lots of human plasma and the same lots were spiked at the mid QC level to verify inter-subject precision and accuracy. Freeze/thaw, benchtop, and autosampler stabilities were determined. Precision and accuracy data were also generated in lipemic and hemolyzed plasma lots, and stability in whole blood was tested. Long run lengths (up to 192 samples over 2 plates) were evaluated to determine whether the analytical system was reliable over twice the expected duty cycle.
as §1

As for `CC(=O)N[C@@H](CS)C(=O)O` [NAC, N-acetyl-L-cysteine], the half-life in data set [1] is ~10 min. In addition, the “Freeze/Thaw Stability” value in data set [2] is “At least 5 cycles, at either −20 °C or −80° C., either analyte”. The “Benchtop Stability” value in data set [2] (20 hours) was “At least 20 hours at room temperature, either analyte”. Besides, the “Stability of calibration standard pools” value is given as “at least 80 days” in data set [2] (80 days) and 284 days in data set [2] (284 days).
